# Results as given in US7947280B2 (priority 2003, dated 2011).
# “Also recorded” adds a separate entry of the source.
# Experiments:
# rats = conditions: intravenous bolus injection in rats; Tatemoto et al., Lee et al.; cited from earlier work
# [1] = test system: mice with experimentally induced heart failure; conditions: Pyr-apelin-13 2 mg/kg/day; between weeks 1 and 3; n=6
# Method: Left anterior decending artery ligation. Animals were anesthetized with 2-3% inhalational isofluorane and 50 mg/kg sodium pentobarbital intraperitoneally. […] The animals were placed in the left lateral decubitus position and a thoracotomy performed at the 4th intercostal space. Peak inspiratory pressures were monitored and maintained between 10-14 cm of water. The lung was retracted and the pericardium incised. The left coronary artery was ligated with a 7-0 prolene suture until blanching of the distal left ventricle was noted. Heart rate and temperature were monitored during the procedure. After ascertaining complete hemostasis, the chest wall was closed in four layers. The animals were weaned from the ventilator and anesthetic and then extubated and monitored in the recovery area.
# Treadmill exercise. […] In mice, a commonly used commercially available setup (Columbus Instruments) employs a moving belt encased in a sealed Plexiglas enclosure, allowing for measurement of oxygen consumption and carbon dioxide production. Stimulus devices consist of a metal shock grid. Metabolic measurements are performed using an open circuit volumetric gas analysis system (Oxymax System; Columbus Instruments). The low dead space of this circuit allows quick gas equilibration with a t1/2 of 30 s, which is highly suitable for use during graded exercise protocols. […]
# [2] = test system: superoxide production in aortic tissue of apoE knockout mice; test: Lucigenin-enhanced chemiluminescence of aortic superoxide; type: in vivo, mouse; conditions: addition of apelin to AngII
# Method: Lucigenin-enhanced chemiluminescence. Total aortic superoxide was measured by lucigenin-enhanced chemiluminescence as described previously. Aortas were harvested flushed with Krebs-HEPES buffer, opened longitudinally and divided into halves. Vessels were gassed with 95% oxygen/5% carbon dioxide in warmed Krebs-HEPES buffer for 30 minutes before measurements of chemiluminescence in a luminometer (manufacturer, location) using 20 μmol/L lucigenin. One half of each vessel was incubated in L-NAME (1 mmol/L). After measuring baseline readings for 4 minutes, samples were equilibrated and dark adapted for 5 mins, and chemiluminescence was recorded for 10 minutes. Recordings were performed blinded to the samples identity. Results were expressed as counts per second per milligram of tissue dry weight.
# [3] = test system: Erk1/2 phosphorylation in HEK293 cells expressing AT1R; conditions: AngII, 5 and 15 minute timepoints
# Method: Cell Culture, Transfections, and Stimulation Assays HEK293 cells were cultured in Dulbecco's modified Eagle's medium with 10% fetal bovine serum, 10 units/ml penicillin, and 100 μg/ml streptomycin. Transient transfection of the HEK293 cells was carried out using FuGene reagent per manufacturer's protocols in 6 well plates (Roche). […] For ERK phosphorylation, transfected HEK293 cells were serum starved for 3 hours and incubated with the agonist for designated times at 37 C. Cells were immediately lysed.
# C57B/16 mice = test: Magnetic resonance imaging after intraperitoneal apelin-12 injection; type: in vivo, mouse; conditions: post apelin-12 300 μg/kg intraperitoneal, one hour prior to scanning; n=9
# Method: Magnetic resonance imaging. […] Platinum needle ECG leads were inserted subcutaneously. Respiration was monitored by means of a pneumatic pillow sensor positioned against the abdomen. Mouse body temperature was maintained during scanning at 37° C. by a flow of heated air thermostatically controlled by a rectal temperature probe. Magnetic resonance images were acquired on a 4.7T Oxford magnet controlled by a Varian Inova console (Varian, Palo Alto, Calif.) using a transmit-receive, quadrature, volume coil with an inner diameter of 3.5 cm. Image acquisition was gated to respiration and to the ECG R wave (SA Instruments, Stony Brook, N.Y.). Coronal and sagittal scout images led to the acquisition of multiple contiguous 1 mm thick, short axis slices orthogonal to the interventricular septum. […] Planimetry measurements of end diastolic and end systolic dimension were derived offline from short axis views of the left ventricle at the level of the papillary muscles using ImageJ software (National Institutes of Health, Bethesda, Md.). Ejection fraction was calculated as [[…]. Data Analysis. […] Exact p values are reported for all comparisons.
# [4] = test system: Erk1/2 phosphorylation in RASM; conditions: AngII stimulated RASM
# [5] = test system: NFκB, NFAT, AP-1 and SRE reporter constructs; test: Luciferase reporter assays of AngII nuclear signaling in HEK-293 cells; type: cell-based
# Text: cDNA Constructs APJ expression construct was purchased from cDNA.org. AT1R construct was obtained from Dr. Marc Caron. AT1R transcript was inserted into a pEGFP-N1 vector (Clonetech). The NF-kB and SRE luciferase reporter constructs were obtained from BD Biosciences.
# Cells were immediately lysed.
# ApoE-KO mice = test: Vein graft neointimal hyperplasia model; type: in vivo, mouse
# Method: Animals. Mice were maintained in temperature-controlled (20° C. to 22° C.) environment with a 12-hour light-dark cycle. Sterile water and standard chow diet were available ad libitum. All mice were C57BL/6J ApoE-KO male mice (Jackson Laboratories, Bar Harbor, […].) between the ages of 8-12 weeks. […] Animal procedures were carried out in accordance with the Institutional Review Board Guidelines at Stanford University.
# AT1R = target: T1, AT1R (Rattus norvegicus, UniProt P25095); test: Competitive ligand binding with FAM-labeled AngII in HEK-293 cells; conditions: unlabeled ligand 100 nM; HEK-293 cells transfected with AT1R
# T1 construct: expressed in transfected cells; host or cells: HEK-293
# T1 sequence (P25095 1-359): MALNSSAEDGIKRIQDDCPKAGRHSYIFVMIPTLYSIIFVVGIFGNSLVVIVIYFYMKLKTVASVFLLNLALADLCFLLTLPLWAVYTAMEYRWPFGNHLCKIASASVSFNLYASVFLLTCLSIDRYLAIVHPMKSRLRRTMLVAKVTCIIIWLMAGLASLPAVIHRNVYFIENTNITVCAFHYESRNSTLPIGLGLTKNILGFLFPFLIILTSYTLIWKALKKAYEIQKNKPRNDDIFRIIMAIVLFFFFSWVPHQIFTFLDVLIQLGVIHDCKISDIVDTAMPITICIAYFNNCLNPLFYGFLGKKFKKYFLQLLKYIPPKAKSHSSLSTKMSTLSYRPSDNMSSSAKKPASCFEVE
# isolated rat heart = conditions: Szokodi et al; cited from earlier work
# [6] = test system: mice given angiotensin II and isoproterenol infusions; test: Neurohormonal cardiomyopathy model, echocardiography; type: in vivo, mouse; conditions: wild type mice
# Method: Echocardiography. Two dimensional and M mode echocardiography was carried out using thea GE Vivid ultrasound platform with the small animal probe (13 MHz). […] After shaving of the anterior chest, mice were warmed using a heat lamp. Short axis views of the left ventricle were captured at the level of the papillary muscles in 2D and M modes. Analysis was carried out offline and fractional shortening calculated as [LVEDD−LVESD]/LVEDD where LVEDD is left ventricular end diastolic diameter (measured at the tip of the mitral valve leaflets) and LVESD is left ventricular end systolic diameter.
# Neurohormonal cardiomyopathy model. […] All mice were age 12-14 weeks.
substance,measurement,setting,value
apelin,mean arterial pressure,rats,decrease
same,average time to exhaustion / exercise capacity,[1],"marked, statistically significant increase"
same,AngII stimulated increase in total chemiluminescence,[2],abolished
same,phosphorylation of Erk1/2,[3],dramatically reduced
same,Ejection fraction,C57B/16 mice,67.7±1.6%
same,heart rate (inverse of R-R interval of electrocardiogram),C57B/16 mice,559±19 beats per minute
same,left ventricular end diastolic area,C57B/16 mice,0.104±0.005 cm2
same,Erk1/2 phosphorylation,[4],decreased
same,NFκB reporter activation stimulated by TNF-α and H2O2,[5]; apelin treatment,In neither case did apelin diminish transcription; also recorded: not affected
same,AngII induced increase in reporter transcription,[5]; cells also treated with apelin,abrogated; also recorded: decreased activation
same,reduction of mean vessel wall area,ApoE-KO mice; apelin added to AngII treated animals,34%
same,reduction of mean vessel wall area vs saline treated controls,"ApoE-KO mice; apelin, 4 weeks following vein graft surgery",42%
same,competition for binding of FAM-AngII (10 nM) to AT1R,AT1R,did not compete; also recorded: could not compete; also recorded: does not compete
same,"EC50, contractility of the isolated rat heart",isolated rat heart,low picomolar range
same,heart failure phenotype,[6]; apelin infused concomitantly with angiotensin II and isoproterenol,completely abrogated; also recorded: abrogated completely; also recorded: ameliorates the heart failure phenotype completely
same,fractional shortening (post),"[6]; pyr-apelin-13 2 mg/kg/day with angiotensin II and isoproterenol, 7 day minipumps",42.6±1.3%
